Experimental data: US12264146B2, “Rho kinase inhibitor, method for preparing same and uses thereof” (BEIJING INCREASE INNOVATIVE DRUG CO., LTD., priority 2018, dated 2025)

Experiments:
[1] = tested on: subarachnoid hemorrhage in rats; assay: Rat subarachnoid hemorrhage (SAH) model by intravascular puncture, Sugawara bleeding score; type: in vivo; set-up: dose or concentration left out as unconfirmed; conditions: tail vein injection, 2 administrations 4 h apart, scored 24 h after first administration (Sugawara)
Protocol: Rat subarachnoid hemorrhage (SAH) model was built by intravascular puncture. After being weighed, the rats were anesthetized with sodium pentobarbital (50 mg/kg) or chloral hydrate (300 mg/kg) by intraperitoneal injection, then fixed on their back and maintained the animal's body temperature at about 37° C. The rats' neck skin was shaved for surgery, a median incision was made on the neck, and muscle and fascia were separated along the inner edge of stemocleidomastoid muscle to expose the main and bifurcation of right common carotid artery, and expose the external and internal carotid arteries.
The bifurcation of internal carotid artery was gently clamped with ophthalmic forceps, the bifurcation of the internal carotid artery and the external carotid artery was pierced with a 6-gauge syringe needle, the ophthalmic forceps holding the bifurcation of internal carotid artery was slightly loosen, and No. 3 fishing thread was used to perform a puncture at the bleeding point, the ophthalmic forceps on the internal carotid artery was loosen, and the fishing thread was inserted into skull. […] After staying for 15 seconds, the thread for puncture was completely removed, and the skin was sutured after compression to stop the bleeding. 1.6 million units of penicillin potassium (400,000 units/ml, 0.2 ml/rat) was intramuscularly injected to avoid wound infection. For the sham operation group, the thread for puncture was removed when resistance was felt without piercing the bifurcation of the anterior cerebral artery and the middle cerebral artery, while the remaining operation steps were the same as the model group. After the operation, the rats were transferred to a thermal insulation blanket, then transferred to a squirrel cage when they were basically awake, and kept normally.
In this test experimental, 32 groups were set, i.e., Groups 1 to 32, in which Group 1 was a normal control group (healthy rats), Group 2 was a sham operation control group (not modeling by puncture), Group 3 was a model control group (modeling by puncture, administrated with normal saline), Group 4 was a positive control group (modeling by puncture, administrated with fasudil hydrochloride injection), and Groups 5 to 32 were test groups of the compounds of the present application (modeling by puncture, respectively administrated with the compounds of the present application); and there were 8 animals (purchased from SPF (Beijing) Biotechnology Co., Ltd., the certificate number was SYXK (Beijing) 2016-0002) in each group, half of them were female and half of them were male. The animals were subjected to fasting for 12 to 18 hours without prohibition of drinking water before modeling. […] The rats were euthanized 24 h after the first administration, and the brains were taken. According to Sugawara's method (Reference: Sugawara T, Ayer R, Jadhav V, et al. A new grading system evaluating bleeding scale in filament perforation subarachnoid hemorrhage rat model. J Neurosci Methods. 2008, 167(2):327-34), the subarachnoid hemorrhage amounts were scored, and the scoring results were as follows: […]

[2] = tested on: endothelial nitric oxide synthase (eNOS); assay: Endothelial nitric oxide synthase (eNOS) in EA.Hy926 endothelial cells, detection kit; type: cell-based; conditions: 24 h; for expression of endothelial nitric oxide synthase in endothelial cells: Detection result of test compound at low dose (0.4 μM) / expression of endothelial nitric oxide synthase in endothelial cells: Detection result of test compound at medium dose (2 μM) / expression of endothelial nitric oxide synthase in endothelial cells: Detection result of test compound at high dose (10 μM): EA.Hy926 cell supernatant
Protocol: (§1) Commercially available cytokine kits were used to detect the effects of the compounds of the present application on vascular endothelium-derived contracting factor endothelin, vascular endothelium-derived relaxing factor endothelial nitric oxide synthase, nitric oxide, and prostacyclin factor. The detection was performed according to the kit instructions. When testing the effect of the compound of the present application on cytokines, a normal control group, a fasudil hydrochloride group, and high-, medium- and low-dose groups of the compounds of the present application were set up for testing. The fasudil hydrochloride used in this test example was purchased from Beijing Sihuan Pharmaceutical Co., Ltd., with the SFDA approval number of H20173349. The EA.Hy926 cells used in this test example were purchased from Suzhou Beina Chuanglian Biotechnology Co., Ltd.
Detection conditions: EA.Hy926 cells were inoculated at 1×10^5 […] in a 96-well plate, 100 μL per well, and cultured adherently for 24 hours, then the test compound prepared with DMEM medium was added, the normal control group was added with an equal volume of DMEM medium, then the cells were cultured for 24 hours at 37° C., and then the cell supernatant was taken and placed in an EP tube, and centrifuged at 3000 r/min and 4° C. for 15 minutes, the resulting supernatant was transferred to a new EP tube, diluted 3 times, and detected according to the instruction of eNOs detection kit (purchased from Wuhan Elabscience Biotechnology Co., Ltd., Cat. No. AK0017OCT12013), and the detection results were shown in Table 4.

nitric oxide (NO) = assay: Synthesis and secretion of nitric oxide (NO) in EA.Hy926 endothelial cells, NO detection kit; type: cell-based; conditions: EA.Hy926 cell supernatant, 24 h
Protocol: as §1
EA.Hy926 cells were inoculated in a 24-well plate at 5×10^5 cells/mL, 400 μL per well, and cultured adherently for 18 hours, then the supernatant was discarded, the test compound prepared in DMEM medium was added, and an equal volume of DMEM medium was added in the normal control group, then the cells was cultured for 24 h in incubator, and then the cell supernatant was collected and detected according to the instructions of NO detection kit (purchased from Beyotime Institute of Biotechnology, Cat. No. 062617171017), and the detection results were shown in Table 5.

[3] = Toxicity test on endothelial cells EA.hy926, CCK-8 cell viability; type: cell-based; conditions: human, 1000~0.32 μmol/L, 5-fold dilution, read-out: IC50 of Test compound (cytotoxicity on EA.hy926 cells)
Protocol: In this test example, 31 groups, i.e., Groups 1 to 31, were set, in which Group 1 was a blank control group, Group 2 was a normal control group, Group 3 was a positive control group, and Groups 4 to 31 were test groups of the compounds of the present application. The specific test operation comprised: 100 μL of endothelial cells EA.hy926 (purchased from Suzhou Beina Chuanglian Biotechnology Co., Ltd.) with a density of 5×10^4 was added to each well of a 96-well plate, and transferred to an incubator at 37° C. with 5% CO2 and saturated humidity conditions and cultured for 24 hours, 100 μL of 2× the test compound solution prepared and diluted with DMEM medium containing 10% fetal bovine serum was added, in which the test compound added in the positive control group was Fasudil hydrochloride (purchased from Beijing Sihuan Pharmaceutical Co., Ltd., SFDA approval number H20173349) solution with different concentrations, an equal volume of DMEM medium was added in the blank control group, an equal volume of PBS buffer was added in the normal control group, and a duplicate well was set for each concentration point. After adding the test compound, the culture was continued in the incubator for 24 hours, then 20 μL of CCK-8 detection solution (purchased from Beijing Solarbio Science & Technology Co., Ltd., Cat. No. CA1210) was added to each well, interacted at 37° C. for 2.5 hours, shaken and mixed well, and then the absorbance value at 450 nm was detected.
OD values were detected, and the cell viability values of test groups of different concentrations were calculated according to the cell viability calculation formula as follows: Cell viability=(Atest group−Ablank control)/(Anormal control−Ablank control)*100%
wherein A represented absorbance value at 450 nm.
Prism6.0 was used to obtain the inhibitor concentration-viability curve and to calculate the IC50 of the test compound, the correlation coefficient R^2>0.99; the inhibitor concentration-viability curves of Fasudil hydrochloride, R-YK1601, R-YK1603, R-YK1606, R-YK1607, R-YK1610 were shown in FIGS. 1 to 6, in which the abscissa was the logarithm on base 10 of the concentration of the test compound, and the ordinate was the cell activity (i.e., cell viability).

Compound | Cerebral hemorrhage volume score (x ± s) [1] | expression of endothelial nitric oxide synthase in endothelial cells: Detection result of test compound at low dose (0.4 μM) [2] [pg/mL] | expression of endothelial nitric oxide synthase in endothelial cells: Detection result of test compound at medium dose (2 μM) [2] [pg/mL] | expression of endothelial nitric oxide synthase in endothelial cells: Detection result of test compound at high dose (10 μM) [2] [pg/mL] | nitric oxide secretion in endothelial cells: Detection result of test compound at low dose (0.4 μM) (nitric oxide (NO)) [μm] | nitric oxide secretion in endothelial cells: Detection result of test compound at medium dose (2 μM) (nitric oxide (NO)) [μm] | nitric oxide secretion in endothelial cells: Detection result of test compound at high dose (10 μM) (nitric oxide (NO)) [μm] | IC50 at 24 h [3] [µM] | effect on the expression of nitric oxide synthase (in words) ([2]; high dose)
C[C@@H]1CNCCCN1S(=O)(=O)c1cccc2c(O)ncc(C3CC3)c12 [Compound R-YK1600-1, (R)-4-cyclopropyl-5-((2-methyl-1,4-diazacycloheptan-1-yl)sulfonyl)isoquinolin-1-ol] | 13.37 ± 2.56 | 2528.44 ± 267.48 | 2485.91 ± 287.57 | 2345.81 ± 213.65 | 1.012 ± 0.053 | 1.099 ± 0.201 | 1.148 ± 0.251 | 188 | –
COc1ncc(C2CC2)c2c(S(=O)(=O)N3CCCNC[C@H]3C)cccc12 [Compound R-YK1600-2, (R)-4-cyclopropyl-1-methoxy-5-((2-methyl-1,4-diazacycloheptan-1-yl)sulfonyl)isoquinoline] | 13.59 ± 2.67 | 2428.32 ± 287.58 | 2384.92 ± 317.27 | 2245.86 ± 224.65 | 0.982 ± 0.096 | 1.037 ± 0.062 | 1.139 ± 0.263 | 145 | –
C[C@@H]1CNCCCN1S(=O)(=O)c1cccc2c(O)nccc12 [Compound R-YK1601, (R)-5-((2-methyl-1,4-diazacycloheptan-1-yl)sulfonyl)isoquinolin-1-ol] | 11.75 ± 2.05 | 2526.66 ± 220.56 | 2339.70 ± 249.84 | 2598.44 ± 365.33 | 0.806 ± 0.057 | 0.896 ± 0.147 | 1.131 ± 0.134 | 686 | slight promotion effect
COc1nccc2c(S(=O)(=O)N3CCCNC[C@H]3C)cccc12 [Compound R-YK1602, (R)-1-methoxy-5-((2-methyl-1,4-diazacycloheptan-1-yl)sulfonyl)isoquinoline] | 11.95 ± 2.04 | 2607.85 ± 384.81 | 2314.00 ± 393.66 | 2262.45 ± 134.54 | 0.878 ± 0.006 | 0.914 ± 0.032 | 1.005 ± 0.006 | 433 | –
C[C@@H]1CNCCCN1S(=O)(=O)c1cccc2cnccc12 [Compound R-YK1603, (R)-5-((2-methyl-1,4-diazacycloheptan-1-yl)sulfonyl)isoquinoline] | 12.06 ± 1.98 | 2928.44 ± 257.48 | 2385.91 ± 387.57 | 2245.94 ± 213.65 | 1.207 ± 0.000 | 0.743 ± 0.070 | 0.910 ± 0.025 | 256 | –
C[C@@H]1CNCCCN1S(=O)(=O)c1cccc2c(O)ncc(F)c12 [Compound R-YK1604, (R)-4-fluoro-5-((2-methyl-1,4-diazacycloheptan-1-yl)sulfonyl)isoquinolin-1-ol] | 12.58 ± 1.96 | 2932.05 ± 435.87 | 2397.93 ± 180.08 | 2229.68 ± 63.98 | 1.009 ± 0.064 | 0.851 ± 0.032 | 0.829 ± 0.064 | 210 | –
